Laboratory results reported in patent US20250263733A1, “TARGETED GENE INTEGRATION IN PLANTS” (LIMAGRAIN EUROPE, priority 2021, published 2025).

Tested on: Ubi7DL gene
Assay: NGS sequencing of transformed plantlets for mutations at the gRNA target site around the STOP codon of Ubi7DL
Design: species or system wheat var. Fielder
Conditions: 59 of 97 events; multiplex G1, G2, G3 guides with Cas9; all mutations generated with G3
Excerpt: The strategy for GT at Ubi7DL is outlined in FIG. 1 and is based on the method of in planta GT (Fauser et al. 2012). A Cas9 gRNA (G3 SEQ ID NO: 8) that efficiently makes a DNA double strand break (DSB) around the STOP codon of the Ubi7DL gene was first identified by Agrobacterium-mediated transformation into wheat var. Fielder with a binary plasmid containing a TaU6-tRNA multiplex guide (SEQ ID NO: 10) expressing 3 guides G1 (SEQ ID NO: 6), G2 (SEQ ID NO: 7) and G3 (SEQ ID NO: 8) under control of promoter TaU6 (SEQ ID NO: 9), together with ZmUbi (SEQ ID NO: 11)-Cas9 (SEQ ID NO: 13)-nos terminator (SEQ ID NO: 12) and pActin-Bar-nos cassettes. These 3 target sites are around the STOP codon of Ubi7DL. Fielder wheat cultivar was transformed with these Agrobacterium strains essentially as described by WO2000/063398.

G3: Cas9 gRNA (SEQ ID NO: 8) making a double strand break around the STOP codon of Ubi7DL (guide CAGGAGCTTACTGGCCACCA; listed as DNA, chemistry not given here; listed as Triticum aestivum) [Line G3]
independent transformation events with mutations at the target site: 61%
